The structures appear in SMILES notation.

We go through 15 compounds from patent US9981940B2, “Aryl sulfide derivatives and aryl sulfoxide derivatives as acaricides and insecticides” (BAYER CROPSCIENCE AKTIENGESELLSCHAFT, priority 2013, dated 2018).

One series concerns Tetranychus urticae. Description: Tetranychus urticae spray test, OP-resistant (TETRUR). It counts as in vivo. As to conditions: application rate of 500 g/ha; after 6 days. The procedure: Tetranychus urticae—Spray Test, OP-Resistant (TETRUR)
• Solvent: 78.0 parts by weight of acetone • 1.5 parts by weight of dimethylformamide • Emulsifier: 0.5 part by weight of alkylaryl polyglycol ether
To produce an appropriate active ingredient formulation, 1 part by weight of active ingredient is mixed with the specified amounts of solvent and emulsifier, and the concentrate is diluted to the desired concentration with emulsifier-containing water.
Discs of bean leaves (Phaseolus vulgaris) infested by all stages of the greenhouse red spider mite (Tetranychus urticae) are sprayed with an active ingredient formulation of the desired concentration.
After 6 days, the efficacy in % is determined 100% means that all the spider mites have been killed; 0% means that none of the spider mites have been killed.
Compound `Cc1cc(F)c(-n2nc(SCc3ccccc3)n(C)c2=O)cc1[S+]([O-])CC(F)(F)F` (racemic) [Example 287] gave an efficacy of 100%.

As to `Cc1cc(F)c(-n2nc(SCC(F)F)n(C)c2=O)cc1[S+]([O-])CC(F)(F)F` (racemic) [Example 289], the efficacy is 100%.

For `C=CCSc1nn(-c2cc([S+]([O-])CC(F)(F)F)c(C)cc2F)c(=O)n1C` (racemic) [Example 291], the efficacy worked out at 100%.

Compound `CCSc1nn(-c2cc([S+]([O-])CC(F)(F)F)c(C)cc2F)c(=O)n1CC` (racemic) [Example 293] came in with an efficacy of 90%.

`Cc1cc(C)c([S+]([O-])CC(F)(F)F)cc1-n1nnn(C(C)C)c1=O` (racemic) [Example 300]: the efficacy is reported as 100%.

`COC1=CC(=O)N(c2cc([S+]([O-])CC(F)(F)F)c(C)cc2C)C1` (racemic) [Example 313]: the efficacy was found to be 90%.

Regarding `COC1=CC(=O)N(c2cc([S+]([O-])CC(F)(F)F)c(Cl)cc2Cl)C1` (racemic) [Example 314], the efficacy was 100%.

`COC1=CC(=O)N(c2ccc(Cl)c([S+]([O-])CC(F)(F)F)c2)C1` (racemic) [Example 315] returned an efficacy of 90%.

In the case of `COC1=CC(=O)N(c2ccc(C)c([S+]([O-])CC(F)(F)F)c2)C1` (racemic) [Example 317], the efficacy is 90%.

`Cc1cc(F)c(-n2nc(C3CC3)n(C)c2=O)cc1[S+]([O-])CC(F)(F)F` (racemic) [Example 352]: the efficacy stood at 90%.

The compound `Cc1cc(F)c(-n2nc(C3CC3)n(C(C)C)c2=O)cc1[S+]([O-])CC(F)(F)F` (racemic) [Example 353] yielded an efficacy of 100%.

Turning to `Cc1cc(F)c(-n2nc(C)n(-c3ccccc3)c2=O)cc1[S+]([O-])CC(F)(F)F` (racemic) [Example 356], the efficacy amounted to 100%.

In the case of `Cc1cc(F)c(-n2ncn(-c3ccccc3)c2=O)cc1[S+]([O-])CC(F)(F)F` (racemic) [Example 357], the efficacy is 90%.

`O=c1n(-c2cc([S+]([O-])CC(F)(F)F)c(Cl)cc2F)nc(OCC(F)(F)F)n1C1CC1` (racemic) [Example 382] gave an efficacy of 100%.

For `O=c1n(-c2cc([S+]([O-])CC(F)(F)F)c(Br)cc2F)nc(OCC(F)(F)F)n1C1CC1` (racemic) [Example 383], the efficacy came to 100%.

System in a further series: not listed separately
Description: log P by HPLC (OECD Guideline 117), method [a] acidic range. It counts as physicochemical. The conditions noted are these: HPLC, method [a] acidic range. The method, then:
(§1) The log P values were determined analogously to OECD Guideline 117 (EC Directive 92/69/EEC) by HPLC (high-performance liquid chromatography) using reversed-phase columns (C 18), by the following methods:
[a] The LC-MS determination in the acidic range is effected at pH 2.7 with 0.1% aqueous formic acid and acetonitrile (contains 0.1% formic acid) as eluents; linear gradient from 10% acetonitrile to 95% acetonitrile.
Consider `Cc1cc(F)c(-n2nc(SCc3ccccc3)n(C)c2=O)cc1[S+]([O-])CC(F)(F)F` (racemic) [Example 287], for which the “logP[a]” value turned out to be 3.08.

Turning to `Cc1cc(F)c(-n2nc(SCC(F)F)n(C)c2=O)cc1[S+]([O-])CC(F)(F)F` (racemic) [Example 289], the “logP[a]” value worked out at 3.30.

Regarding `C=CCSc1nn(-c2cc([S+]([O-])CC(F)(F)F)c(C)cc2F)c(=O)n1C` (racemic) [Example 291], the “logP[a]” value is 2.55.

On to `CCSc1nn(-c2cc([S+]([O-])CC(F)(F)F)c(C)cc2F)c(=O)n1CC` (racemic) [Example 293], for which the “logP[a]” value was 2.76.

On to `Cc1cc(C)c([S+]([O-])CC(F)(F)F)cc1-n1nnn(C(C)C)c1=O` (racemic) [Example 300], for which the “logP[a]” value worked out at 2.63.

Take `COC1=CC(=O)N(c2cc([S+]([O-])CC(F)(F)F)c(C)cc2C)C1` (racemic) [Example 313]: the “logP[a]” value was 1.83.

On to `COC1=CC(=O)N(c2cc([S+]([O-])CC(F)(F)F)c(Cl)cc2Cl)C1` (racemic) [Example 314], for which the “logP[a]” value was found to be 2.24.

Regarding `COC1=CC(=O)N(c2ccc(Cl)c([S+]([O-])CC(F)(F)F)c2)C1` (racemic) [Example 315], the “logP[a]” value is 2.24.

As to `COC1=CC(=O)N(c2ccc(C)c([S+]([O-])CC(F)(F)F)c2)C1` (racemic) [Example 317], the “logP[a]” value stood at 1.90.

For `Cc1cc(F)c(-n2nc(C3CC3)n(C)c2=O)cc1[S+]([O-])CC(F)(F)F` (racemic) [Example 352], the “logP[a]” value was found to be 1.99.

In the case of `Cc1cc(F)c(-n2nc(C3CC3)n(C(C)C)c2=O)cc1[S+]([O-])CC(F)(F)F` (racemic) [Example 353], the “logP[a]” value came out at 2.58.

Turning to `Cc1cc(F)c(-n2nc(C)n(-c3ccccc3)c2=O)cc1[S+]([O-])CC(F)(F)F` (racemic) [Example 356], the “logP[a]” value is reported as 2.38.

Take `Cc1cc(F)c(-n2ncn(-c3ccccc3)c2=O)cc1[S+]([O-])CC(F)(F)F` (racemic) [Example 357]: the “logP[a]” value stood at 2.38.

In the case of `O=c1n(-c2cc([S+]([O-])CC(F)(F)F)c(Cl)cc2F)nc(OCC(F)(F)F)n1C1CC1` (racemic) [Example 382], the “logP[a]” value is 3.22.

On to `O=c1n(-c2cc([S+]([O-])CC(F)(F)F)c(Br)cc2F)nc(OCC(F)(F)F)n1C1CC1` (racemic) [Example 383], for which the “logP[a]” value turned out to be 3.27.

System in the next series: not listed separately
Description: log P by HPLC (OECD Guideline 117), method [b] neutral range. It counts as physicochemical. As to conditions: HPLC, method [b] neutral range. The procedure: as §1
[b] The LC-MS determination in the neutral range is effected at pH 7.8 with 0.001 molar aqueous ammonium hydrogencarbonate solution and acetonitrile as eluents; linear gradient from 10% acetonitrile to 95% acetonitrile.
Regarding `Cc1cc(F)c(-n2nc(SCc3ccccc3)n(C)c2=O)cc1[S+]([O-])CC(F)(F)F` (racemic) [Example 287], the “logP[b]” value is given as 3.02.

With `Cc1cc(F)c(-n2nc(SCC(F)F)n(C)c2=O)cc1[S+]([O-])CC(F)(F)F` (racemic) [Example 289], the “logP[b]” value was 3.25.

On to `C=CCSc1nn(-c2cc([S+]([O-])CC(F)(F)F)c(C)cc2F)c(=O)n1C` (racemic) [Example 291], for which the “logP[b]” value was 2.51.

As to `CCSc1nn(-c2cc([S+]([O-])CC(F)(F)F)c(C)cc2F)c(=O)n1CC` (racemic) [Example 293], the “logP[b]” value is 2.72.

Consider `Cc1cc(C)c([S+]([O-])CC(F)(F)F)cc1-n1nnn(C(C)C)c1=O` (racemic) [Example 300], for which the “logP[b]” value is reported as 2.61.

As for `COC1=CC(=O)N(c2cc([S+]([O-])CC(F)(F)F)c(C)cc2C)C1` (racemic) [Example 313], the “logP[b]” value is reported as 1.83.

`COC1=CC(=O)N(c2cc([S+]([O-])CC(F)(F)F)c(Cl)cc2Cl)C1` (racemic) [Example 314]: the “logP[b]” value stood at 2.23.

Turning to `COC1=CC(=O)N(c2ccc(Cl)c([S+]([O-])CC(F)(F)F)c2)C1` (racemic) [Example 315], the “logP[b]” value is 2.23.

Consider `COC1=CC(=O)N(c2ccc(C)c([S+]([O-])CC(F)(F)F)c2)C1` (racemic) [Example 317], for which the “logP[b]” value amounted to 1.90.

Take `Cc1cc(F)c(-n2nc(C3CC3)n(C)c2=O)cc1[S+]([O-])CC(F)(F)F` (racemic) [Example 352]: the “logP[b]” value was 1.96.

Turning to `Cc1cc(F)c(-n2nc(C3CC3)n(C(C)C)c2=O)cc1[S+]([O-])CC(F)(F)F` (racemic) [Example 353], the “logP[b]” value was found to be 2.55.

Turning to `Cc1cc(F)c(-n2nc(C)n(-c3ccccc3)c2=O)cc1[S+]([O-])CC(F)(F)F` (racemic) [Example 356], the “logP[b]” value was 2.35.

As to `Cc1cc(F)c(-n2ncn(-c3ccccc3)c2=O)cc1[S+]([O-])CC(F)(F)F` (racemic) [Example 357], the “logP[b]” value was 2.36.

With `O=c1n(-c2cc([S+]([O-])CC(F)(F)F)c(Cl)cc2F)nc(OCC(F)(F)F)n1C1CC1` (racemic) [Example 382], the “logP[b]” value was 3.13.

Consider `O=c1n(-c2cc([S+]([O-])CC(F)(F)F)c(Br)cc2F)nc(OCC(F)(F)F)n1C1CC1` (racemic) [Example 383], for which the “logP[b]” value is listed as 3.26.
